Calls of active or inactive are those of the source. The rule behind the calls is not given here.
Each compound was assayed on Rattus norvegicus (assay: Antiinflammatory activity in rat at 20 mg/kg, ip after 10 days by sponge implantation method).
Format: functional, organism-based
Set-up: dose 20 mg/kg

| Structure (SMILES) | Activity |
| --- | --- |
| Cc1ccc(-c2nn(CC(=O)NNC(=S)NCc3ccccc3)c(=O)c3ccccc23)cc1C | Active |
| CCO/C=N/NC(=O)Cn1nc(-c2ccc(C)c(C)c2)c2ccccc2c1=O | Active |
| CC1=NN(C(=O)Cn2nc(-c3ccc(C)c(C)c3)c3ccccc3c2=O)C(=O)C1 | Active |
| Cc1ccc(-c2nn(CC(=O)N/N=C/NN)c(=O)c3ccccc23)cc1C | Active |
| Cc1ccc(-c2nn(Cc3n[nH]c(=S)o3)c(=O)c3ccccc23)cc1C | Active |

— ChEMBL document CHEMBL1157056, “Synthesis and anti-inflammatory evaluation of some condensed [4-(3,4-dimethylphenyl)-1(2H)-oxo-phthalazin-2-yl]acetic acid hydrazide” (Eur J Med Chem, 2010)
